Experimental data from patent US6770659B2, “Benzoyl piperidine compounds” (SK Corporation, priority 2002, dated 2004).
Like-named read-outs stand apart in the source and are kept apart here.

System: climbing behavior induced by apomorphine in mice
Assay: Climbing Mouse Assay (anti-climbing behavior test)
Assay type: in vivo
Conditions: ICR CD strain male mice, apomorphine challenge; for ED50: Mus musculus
Source text: This activity was examined through the anti-climbing behavior test, i.e. the test for suppressing the climbing behavior induced by apomorphine in mice. A designated amount of the test compound was intraperitoneally or orally administered to several groups of ICR CD strain male mice (body weight, 20 to 25 g; one group, 6 mice), and each of the animals was charged in an individual column cage of 12 cm in diameter and 14 cm in height having metal poles (each pole, 2 mm in diameter) vertically installed and arranged along the periphery with interval of 1 cm.
Compounds to be tested for antipsychotic activity are injected intraperitoneally or given orally at various time intervals, e.g. 30 minutes, 60 minutes, etc., prior to the apomorphine challenge at a screening dose of 0.1-60 mg/kg.
For evaluation of climbing, 3 readings are taken at 10, 20 and 30 minutes after apomorphine administration according to the following scale:
Mice consistently climbing before the injection of apomorphine will be discarded.
With full-developed apomorphine climbing, the animals are hanging on to the cage walls, rather motionless, over longer periods of time. By contrast, climbing due to mere motor stimulation usually only lasts a few seconds.
The climbing scores are individually totaled (maximal score: 12 per mouse over 3 readings) and the total score of the control group (vehicle intraperitoneally-apomorphine subcutaneously) is set to 100%. ED50 values with 95% confidence limits, calculated by a linear regression analysis, of some of the compounds of the instant invention as well as a standard antipsychotic agent are presented in Table I.

[1] = intraperitoneal administration, read-out: Climbing Mouse Assay ED50 i.p.
[2] = oral administration, read-out: Climbing Mouse Assay ED50 p.o. (converted)

SMILES | Climbing Mouse Assay ED50 i.p. (intraperitoneal administration) | Climbing Mouse Assay ED50 p.o. (oral administration) | ED50 [1] | ED50 [2]
CC(C)c1ccc(C(CN2CCC(C(=O)c3ccc(F)cc3)CC2)n2cncn2)cc1.Cl.Cl.Cl (centres unmarked) [(4-Fluoro-phenyl)-{1-[2-(4-isopropyl-phenyl)-2-[1,2,4]triazoyl-1-yl-ethyl]-piperidin-4-yl}-methanone trihydrochloride] | 3.1 mg/kg | 4.7 mg/kg |  | 
COC(CN1CCC(C(=O)c2ccc(F)cc2)CC1)c1ccc(C(C)C)cc1 (centres unmarked) [(4-Fluoro-phenyl)-{1-[2-(4-isopropyl-phenyl)-2-methoxy-ethyl]-piperidin-4-yl}-methanone] |  |  | 0.17 mg/kg | 0.41 mg/kg
COC(CN1CCC(C(=O)c2ccc(F)cc2)CC1)c1ccc([N+](=O)[O-])cc1.Cl (centres unmarked) [(4-Fluoro-phenyl)-{1-[2-methoxy-2-(4-nitro-phenyl)-ethyl]-piperidin-4yl}-methanone; hydrochloride] |  |  | 5.9 mg/kg | 51.2 mg/kg
CO[C@@H](CN1CCC(C(=O)c2ccc(F)cc2)CC1)c1ccc([N+](=O)[O-])cc1 [(R)-(4-Fluoro-phenyl)-{1-[2-methoxy-2-(4-nitro-phenyl)-ethyl]-piperidin-4-yl}-methanone] |  |  | 24.2 mg/kg | 
Cl.NC(=O)O[C@@H](CN1CCC(C(=O)c2ccc(F)cc2)CC1)c1ccccc1 [(R)-Carbamic acid 2-[4-(4-fluoro-benzoyl)-piperidin-1-yl]-1-phenyl-ethyl ester; hydrochloride] |  |  | 17.8 mg/kg | 46.2 mg/kg
CO[C@H](CN1CCC(C(=O)c2ccc(F)cc2)CC1)c1ccc(C(C)C)cc1 [(S)-(4-Fluoro-phenyl)-{1-[2-(4-isopropyl-phenyl)-2-methoxy-ethyl]-piperidin-4-yl}-methanone] |  |  | 0.13 mg/kg | 0.09 mg/kg
CO[C@H](CN1CCC(C(=O)c2ccc(F)cc2)CC1)c1ccc([N+](=O)[O-])cc1 [(S)-(4-Fluoro-phenyl)-{1-[2-methoxy-2-(4-nitro-phenyl)-ethyl]-piperidin-4-yl}-methanone] |  |  | 4.5 mg/kg | 16.9 mg/kg
Cl.NC(=O)O[C@H](CN1CCC(C(=O)c2ccc(F)cc2)CC1)c1ccccc1 [(S)-Carbamic acid 2-[4-(4-fluoro-benzoyl)-piperidin-1-yl]-1-phenyl-ethyl ester; hydrochloride] |  |  | 0.96 mg/kg | 4.3 mg/kg
CCc1ccc([C@@H](CN2CCC(C(=O)c3ccc(F)cc3)CC2)OC)cc1 [(S)-{1-[2-(4-Ethyl-phenyl)-2-methoxy-ethyl]-piperidin-4-yl}-(4-fluoro-phenyl)-methanone] |  |  | 0.31 mg/kg | 1.2 mg/kg
O=C(c1ccc(F)cc1)C1CCN(CC(COc2ccccc2)OC(=O)N2CCCCCC2)CC1 (centres unmarked) [Azepane-1-carboxylic acid 1-[4-(4-fluoro-benzoyl)-piperidin-1-ylmethyl]-2-phenoxy-ethyl ester] |  |  | 1.5 mg/kg | 
Cl.O=C(NCc1ccccc1)OC(CN1CCC(C(=O)c2ccc(F)cc2)CC1)c1ccccc1 (centres unmarked) [Benzyl-carbamic acid 2-[4-(4-fluoro-benzoyl)-piperidin-1-yl]-1-phenyl-ethyl ester; hydrochloride] |  |  | 2.2 mg/kg | 7.1 mg/kg
Cl.NC(=O)OC(CN1CCC(C(=O)c2ccc(F)cc2)CC1)c1ccc(Cl)c(Cl)c1 (centres unmarked) [Carbamic acid 1-(3,4-dichloro-phenyl)-2-[4-(4-fluoro-benzoyl)-piperidin-1-yl]-ethyl ester; hydrochloride] |  |  | 0.32 mg/kg | 0.48 mg/kg
Cl.NC(=O)OC(CN1CCC(C(=O)c2ccc(F)cc2)CC1)c1cccc(Cl)c1 (centres unmarked) [Carbamic acid 1-(3-chloro-phenyl)-2-[4-(4-fluoro-benzoyl)-piperidin-1-yl]-ethyl ester; hydrochloride] |  |  | 0.56 mg/kg | 0.94 mg/kg
Cl.NC(=O)OC(COc1ccccc1)CN1CCC(C(=O)c2ccc(F)cc2)CC1 (centres unmarked) [Carbamic acid 1-[4-(4-fluoro-benzoyl)-piperidin-1-ylmethyl]-2-phenoxy-ethyl ester; hydrochloride] |  |  | 2 mg/kg | 8.5 mg/kg
Cl.NC(=O)OC(CN1CCC(C(=O)c2ccc(F)cc2)CC1)c1cccc([N+](=O)[O-])c1 (centres unmarked) [Carbamic acid 2-[4-(4-fluoro-benzoyl)-piperidin-1-yl]-1-(3-nitro-phenyl)-ethyl ester; hydrochloride] |  |  | 2.6 mg/kg | 
Cl.NC(=O)OC(CN1CCC(C(=O)c2ccc(F)cc2)CC1)c1ccc(C(F)(F)F)cc1 (centres unmarked) [Carbamic acid 2-[4-(4-fluoro-benzoyl)-piperidin-1-yl]-1-(4-trifluoromethyl-phenyl)-ethyl ester; hydrochloride] |  |  | 1.8 mg/kg | 
Cl.NC(=O)OC(CN1CCC(C(=O)c2ccc(F)cc2)CC1)c1ccccc1 (centres unmarked) [Carbamic acid 2-[4-(4-fluoro-benzoyl)-piperidin-1-yl]-1-phenyl-ethyl ester; hydrochloride] |  |  | 4.8 mg/kg | 9.7 mg/kg
CC(C)OC(=O)OC(CN1CCC(C(=O)c2ccc(F)cc2)CC1)c1cccc(Cl)c1 (centres unmarked) [Carbonic acid 1-(3-chloro-phenyl)-2-[4-(4-fluoro-benzoyl)-piperidin-1-yl]-ethyl ester isopropyl ester] |  |  | 6.2 mg/kg | 
CCc1ccc(C(CN2CCC(C(=O)c3ccc(F)cc3)CC2)OC(=O)OC)cc1 (centres unmarked) [Carbonic acid 1-(4-ethyl-phenyl)-2-[4-(4-fluoro-benzoyl)-piperidin-1-yl]-ethyl ester methyl ester] |  |  | 2.4 mg/kg | 7.6 mg/kg
CN1CCN(C2=Nc3cc(Cl)ccc3Nc3ccccc32)CC1 [Clozapine, reference compound] |  |  | 6.3 mg/kg | 13.5 mg/kg
Cc1nc2n(c(=O)c1CCN1CCC(c3noc4cc(F)ccc34)CC1)CCCC2 [Risperidone, reference compound] |  |  | 0.11 mg/kg | 0.29 mg/kg
Cc1ccc(C(CN2CCC(C(=O)c3ccc(F)cc3)CC2)n2cncn2)cc1C (centres unmarked) [{1-[2-(3,4-Dimethyl-phenyl)-2-[1,2,4]triazol-1-yl-ethyl]-piperidin-4-yl}-(4-fluoro-phenyl)-methanone] |  |  | 4.5 mg/kg | 16.6 mg/kg
CCc1ccc(C(CN2CCC(C(=O)c3ccc(F)cc3)CC2)OC)cc1 (centres unmarked) [{1-[2-(4-Ethyl-phenyl)-2-methoxy-ethyl]-piperidin-4-yl}-(4-fluoro-phenyl)-methanone] |  |  | 0.87 mg/kg | 
CCOC(CN1CCC(C(=O)c2ccc(F)cc2)CC1)c1ccc([N+](=O)[O-])cc1 (centres unmarked) [{1-[2-Ethoxy-2-(4-nitro-phenyl)-ethyl]-piperidin-4-yl}-(4-fluoro-1phenyl)-methanone] | 4.16 mg/kg |  |  | 
